{
  "source": "patent US20020137929A1",
  "about": "“1 - (3-heterocyclylphenyl) isothiourea, -isourea, -guanidine and -amidine herbicidal agents” (Intellectual Property Department, BASF Aktiengesellschaft, priority 1998, published 2002)",
  "key": {"[1]": {"system": "AMBEL (Ragweed, Common)", "test": "Postemergence herbicidal evaluation", "type": "in vivo, Ambrosia artemisifolia", "conditions": "postemergence", "method_in_brief": "(§1)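 Rate range approx. 0.0156–0.500 kg/ha. Foliar application at 40 psi to ~2-week seedlings; surfactant 0.5% TWEEN 20 in 50/50 acetone/water. Evaluation 4–5 wk post-treatment by 0–9 visual injury score, means of replicate tests.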"}, "[2]": {"system": "CASOB (Sicklepod)", "test": "Postemergence herbicidal evaluation", "type": "in vivo, Cassia obtusifolia", "conditions": "postemergence", "method_in_brief": "as §1"}, "[3]": {"system": "CHEAL (Lambsquarters, Common)", "test": "Postemergence herbicidal evaluation", "type": "in vivo, Chenopodium album", "conditions": "postemergence", "method_in_brief": "as §1"}, "[4]": {"system": "IPOHE (Morningglory, Ivyleaf)", "test": "Postemergence herbicidal evaluation", "type": "in vivo, Ipomoea hederacea", "conditions": "postemergence", "method_in_brief": "as §1"}, "[5]": {"system": "ECHCG (Barnyardgrass)", "test": "Postemergence herbicidal evaluation", "type": "in vivo, Echinochloa crus-galli", "conditions": "postemergence", "method_in_brief": "as §1"}, "[6]": {"system": "GLXMAW (Soybean, Williams)", "test": "Postemergence herbicidal evaluation", "type": "in vivo, Glycine max, (L.) Merr. cv Williams", "conditions": "postemergence", "method_in_brief": "as §1"}, "[7]": {"system": "TRZAWR (Wheat, Winter, cv Riband)", "test": "Postemergence herbicidal evaluation", "type": "in vivo, Triticum aestivum", "conditions": "postemergence", "method_in_brief": "as §1"}, "[8]": {"system": "ABUTH (Velvetleaf)", "test": "Preemergence herbicidal evaluation", "type": "in vivo, Abutilon theophrasti", "conditions": "preemergence, rated 4-5 weeks after treatment, 0-9 scale", "method_in_brief": "(§2)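 Steps: mix seeds into potting soil; plant atop ~1 inch soil; spray compound in aqueous acetone (~0.0156-0.500 kg/ha equivalent); maintain in greenhouse with watering; rate visually 0-9 versus control at 4-5 weeks.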"}, "[9]": {"system": "AMBEL (Ragweed, Common)", "test": "Preemergence herbicidal evaluation", "type": "in vivo, Ambrosia artemisifolia", "conditions": "preemergence, rated 4-5 weeks after treatment, 0-9 scale", "method_in_brief": "as §2"}, "[10]": {"system": "CASOB (Sicklepod)", "test": "Preemergence herbicidal evaluation", "type": "in vivo, Cassia obtusifolia", "conditions": "preemergence, rated 4-5 weeks after treatment, 0-9 scale", "method_in_brief": "as §2"}, "[11]": {"system": "CHEAL (Lambsquarters, Common)", "test": "Preemergence herbicidal evaluation", "type": "in vivo, Chenopodium album", "conditions": "preemergence, rated 4-5 weeks after treatment, 0-9 scale", "method_in_brief": "as §2"}, "[12]": {"system": "IPOHE (Morningglory, Ivyleaf)", "test": "Preemergence herbicidal evaluation", "type": "in vivo, Ipomoea hederacea", "conditions": "preemergence, rated 4-5 weeks after treatment, 0-9 scale", "method_in_brief": "as §2"}, "[13]": {"system": "GLXMAW (Soybean, Williams)", "test": "Preemergence herbicidal evaluation", "type": "in vivo, Glycine max, (L.) Merr. cv Williams", "conditions": "preemergence, rated 4-5 weeks after treatment, 0-9 scale", "method_in_brief": "as §2"}, "[14]": {"system": "ORYSAT (Rice, Tebonnet)", "test": "Preemergence herbicidal evaluation", "type": "in vivo, Oryza sativa, (L.) Tebonnet", "conditions": "preemergence, rated 4-5 weeks after treatment, 0-9 scale", "method_in_brief": "as §2"}, "[15]": {"system": "MOOVA (Monochoria)", "test": "Preemergence weed control under flooded paddy conditions", "type": "in vivo, Monochoria vaginalis", "conditions": "rated 3-4 weeks after treatment", "method_in_brief": "(§3)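 Silt loam, seeds in top 0.5 cm; flood held 1.5-3 cm; test cpd as acetone/water 50/50 into flood water, ~0.0313-0.500 kg/ha a.i.; greenhouse 3-4 wk; visual 0-9 score vs control.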"}, "[16]": {"system": "SAGPY (Arrowhead (Pygmaea))", "test": "Preemergence weed control under flooded paddy conditions", "type": "in vivo, Sagittaria pygmaea", "conditions": "rated 3-4 weeks after treatment", "method_in_brief": "as §3"}},
  "data": [
    {"compound": "C=CCN1C(=O)C(CC(=O)NS(=O)(=O)CC)SC1=Nc1cc(-n2c(=O)cc(C(F)(F)F)n(C)c2=O)c(F)cc1Cl", "note": "(stereo not shown) [Compound 104, 3-Allyl-2-{{2-chloro-5-[3,6-dihydro-3-methyl-2,6-dioxo-4-(trifluoromethyl)-1(2H)-pyrimidinyl]-4-fluorophenyl}imino}-N-(ethylsulfonyl)-4-oxo-5-thiazolidineacetamide]", "values": [
      {"measurement": "Herbicidal rating AMBEL", "setting": "[1]; rate 0.0156 kg/ha", "result": 3.0},
      {"measurement": "Herbicidal rating AMBEL", "setting": "[1]; rate 0.0313 kg/ha", "result": 9.0},
      {"measurement": "Herbicidal rating AMBEL", "setting": "[1]; rate 0.0625 kg/ha", "result": 9.0},
      {"measurement": "Herbicidal rating AMBEL", "setting": "[1]; rate 0.1250 kg/ha", "result": 9.0},
      {"measurement": "Herbicidal rating CASOB", "setting": "[2]; rate 0.0156 kg/ha", "result": 0.0},
      {"measurement": "Herbicidal rating CASOB", "setting": "[2]; rate 0.0313 kg/ha", "result": 0.0},
      {"measurement": "Herbicidal rating CASOB", "setting": "[2]; rate 0.0625 kg/ha", "result": 0.0},
      {"measurement": "Herbicidal rating CASOB", "setting": "[2]; rate 0.1250 kg/ha", "result": 1.0},
      {"measurement": "Herbicidal rating CHEAL", "setting": "[3]; rate 0.0156 kg/ha", "result": 0.0},
      {"measurement": "Herbicidal rating CHEAL", "setting": "[3]; rate 0.0313 kg/ha", "result": 2.0},
      {"measurement": "Herbicidal rating CHEAL", "setting": "[3]; rate 0.0625 kg/ha", "result": 4.0},
      {"measurement": "Herbicidal rating CHEAL", "setting": "[3]; rate 0.1250 kg/ha", "result": 5.0},
      {"measurement": "Herbicidal rating IPOHE", "setting": "[4]; rate 0.0156 kg/ha", "result": 9.0},
      {"measurement": "Herbicidal rating IPOHE", "setting": "[4]; rate 0.0313 kg/ha", "result": 9.0},
      {"measurement": "Herbicidal rating IPOHE", "setting": "[4]; rate 0.0625 kg/ha", "result": 9.0},
      {"measurement": "Herbicidal rating IPOHE", "setting": "[4]; rate 0.1250 kg/ha", "result": 9.0},
      {"measurement": "Herbicidal rating ECHCG", "setting": "[5]; rate 0.0156 kg/ha", "result": 0.0},
      {"measurement": "Herbicidal rating ECHCG", "setting": "[5]; rate 0.0313 kg/ha", "result": 0.0},
      {"measurement": "Herbicidal rating ECHCG", "setting": "[5]; rate 0.0625 kg/ha", "result": 0.0},
      {"measurement": "Herbicidal rating ECHCG", "setting": "[5]; rate 0.1250 kg/ha", "result": 3.0},
      {"measurement": "Herbicidal rating GLXMAW", "setting": "[6]; rate 0.0156 kg/ha", "result": 4.5},
      {"measurement": "Herbicidal rating GLXMAW", "setting": "[6]; rate 0.0313 kg/ha", "result": 5.5},
      {"measurement": "Herbicidal rating GLXMAW", "setting": "[6]; rate 0.0625 kg/ha", "result": 7.0},
      {"measurement": "Herbicidal rating GLXMAW", "setting": "[6]; rate 0.1250 kg/ha", "result": 8.5},
      {"measurement": "Herbicidal rating TRZAWR", "setting": "[7]; rate 0.0156 kg/ha", "result": 3.0},
      {"measurement": "Herbicidal rating TRZAWR", "setting": "[7]; rate 0.0313 kg/ha", "result": 3.0},
      {"measurement": "Herbicidal rating TRZAWR", "setting": "[7]; rate 0.0625 kg/ha", "result": 4.0},
      {"measurement": "Herbicidal rating TRZAWR", "setting": "[7]; rate 0.1250 kg/ha", "result": 4.0},
      {"measurement": "ABUTH rating", "setting": "[8]; 0.0625 kg/ha", "result": 3.0},
      {"measurement": "ABUTH rating", "setting": "[8]; 0.1250 kg/ha", "result": 8.0},
      {"measurement": "ABUTH rating", "setting": "[8]; 0.2500 kg/ha", "result": 9.0},
      {"measurement": "ABUTH rating", "setting": "[8]; 0.5000 kg/ha", "result": 9.0},
      {"measurement": "AMBEL rating", "setting": "[9]; 0.0625 kg/ha", "result": 0.0},
      {"measurement": "AMBEL rating", "setting": "[9]; 0.1250 kg/ha", "result": 0.0},
      {"measurement": "AMBEL rating", "setting": "[9]; 0.2500 kg/ha", "result": 3.0},
      {"measurement": "AMBEL rating", "setting": "[9]; 0.5000 kg/ha", "result": 9.0},
      {"measurement": "CASOB rating", "setting": "[10]; 0.0625 kg/ha", "result": 0.0},
      {"measurement": "CASOB rating", "setting": "[10]; 0.1250 kg/ha", "result": 0.0},
      {"measurement": "CASOB rating", "setting": "[10]; 0.2500 kg/ha", "result": 0.0},
      {"measurement": "CASOB rating", "setting": "[10]; 0.5000 kg/ha", "result": 0.0},
      {"measurement": "CHEAL rating", "setting": "[11]; 0.0625 kg/ha", "result": 0.0},
      {"measurement": "CHEAL rating", "setting": "[11]; 0.1250 kg/ha", "result": 9.0},
      {"measurement": "CHEAL rating", "setting": "[11]; 0.2500 kg/ha", "result": 9.0},
      {"measurement": "CHEAL rating", "setting": "[11]; 0.5000 kg/ha", "result": 9.0},
      {"measurement": "IPOHE rating", "setting": "[12]; 0.0625 kg/ha", "result": 0.0},
      {"measurement": "IPOHE rating", "setting": "[12]; 0.1250 kg/ha", "result": 0.0},
      {"measurement": "IPOHE rating", "setting": "[12]; 0.2500 kg/ha", "result": 3.0},
      {"measurement": "IPOHE rating", "setting": "[12]; 0.5000 kg/ha", "result": 9.0},
      {"measurement": "GLXMAW rating", "setting": "[13]; 0.0625 kg/ha", "result": 0.0},
      {"measurement": "GLXMAW rating", "setting": "[13]; 0.1250 kg/ha", "result": 0.0},
      {"measurement": "GLXMAW rating", "setting": "[13]; 0.2500 kg/ha", "result": 0.0},
      {"measurement": "GLXMAW rating", "setting": "[13]; 0.5000 kg/ha", "result": 3.0},
      {"measurement": "ORYSAT rating", "setting": "[14]; 0.0625 kg/ha", "result": 0.0},
      {"measurement": "ORYSAT rating", "setting": "[14]; 0.1250 kg/ha", "result": 0.0},
      {"measurement": "ORYSAT rating", "setting": "[14]; 0.2500 kg/ha", "result": 0.0},
      {"measurement": "ORYSAT rating", "setting": "[14]; 0.5000 kg/ha", "result": 0.0},
      {"measurement": "MOOVA herbicidal effect rating", "setting": "[15]; 0.0313 kg/ha", "result": 7.0},
      {"measurement": "MOOVA herbicidal effect rating", "setting": "[15]; 0.0625 kg/ha", "result": 9.0},
      {"measurement": "MOOVA herbicidal effect rating", "setting": "[15]; 0.1250 kg/ha", "result": 9.0},
      {"measurement": "MOOVA herbicidal effect rating", "setting": "[15]; 0.2500 kg/ha", "result": 9.0},
      {"measurement": "SAGPY herbicidal effect rating", "setting": "[16]; 0.0313 kg/ha", "result": 6.0},
      {"measurement": "SAGPY herbicidal effect rating", "setting": "[16]; 0.0625 kg/ha", "result": 9.0},
      {"measurement": "SAGPY herbicidal effect rating", "setting": "[16]; 0.1250 kg/ha", "result": 9.0},
      {"measurement": "SAGPY herbicidal effect rating", "setting": "[16]; 0.2500 kg/ha", "result": 9.0}
    ]}
  ]
}
